# Assays:
# [1] = test system: human CD4+ and CD8+ T cells; assay: DART-A-mediated T cell activation (CD25) with Raji/GF cells and concomitant ibrutinib; format: cell-based
# Protocol: Assays were conducted as described above, except that: 1) fresh human T cells were substituted for ibrutinib pretreated human T cells; 2) 50 μL of T cells containing 200,000 cells were added into each well; and 3) 50 μL of ibrutinib solution at 10, 3, 1, 0.2, or 0 μM were added into the assay plates. […] The ibrutinib solutions were prepared by diluting a 1000 μM stock solution in 100% DMSO in assay medium with DMSO concentration being diluted to 1% DMSO. The final ibrutinib concentrations on the plate were 2500, 750, 250, 50, or 0 nM and the final DMSO concentration was 0.25%. Plates were incubated and processed as described previously.
# However, the presence of ibrutinib inhibited DART-A-mediated CD25 upregulation in a concentration-dependent manner.
# [2] = test system: human T cells; assay: Ibrutinib alone on ex vivo T-cell proliferation (CellTiter-Glo); format: cell-based; conditions: 25, 250, 750 or 2500 nM, up to 3 days
# Protocol: (§1) Normal human T cells (100,000/well) were treated with increasing concentrations of ibrutinib (0 nM, 25 nM, 250 nM, 750 nM or 2500 nM) for 0, 24, 48, and 72 hours under ex vivo T-cell proliferation/activation conditions, which contained T-cell activator anti-CD3/CD28 Dynabeads and rhIL-2.
# Cell viability was determined using the CellTiter-Glo® Luminescent Viability Assay with relative light units (RLU) proportional to the number of viable cells.
# [3] = test system: primary B-cell (CD20+); assay: DART-A-mediated autologous B-cell depletion with human PBMCs in the presence of ibrutinib; format: cell-based
# Source text: (§2) An autologous B-cell depletion assay with human PBMCs, which comprise both target cells (CD19+ B cells) and effector cells (CD3+ T cells) in a physiologically relevant cellular context, was utilized to evaluate the effect of ibrutinib on DART-A-mediated primary B-cell depletion, concomitant T-cell activation, and cytokine release.
# [4] = test system: Raji/GF target cells; assay: DART-A-mediated redirected killing of Raji/GF cells with concomitant ibrutinib; format: cell-based, human
# Protocol: Suspension-cultured CD19-positive Raji/GF cells were harvested and washed with 1×DPBS or assay media containing RPMI 1640 without phenol red, 10% FBS, and pen/strep. Cell concentration and viability were measured by Trypan Blue dye exclusion using a Beckman Coulter Vi-Cell counter. The target cells were diluted in assay media to a cell density of 2×10^5 cells/mL. 50 μL of the diluted cell suspension was added to a 96-well, flat-bottom NUNCLON DELTA white plate (Thermo Scientific Cat #136101). For each treatment, duplicate wells were included. Human T cells, following treatment with ibrutinib for various times as described above, were collected and washed 3 times with assay media. After the final wash, the T cells were counted and resuspended in the assay medium at a cell density of 1×10^6 cells/mL and 100 μL were added to each well. […] The plates were incubated at room temperature in the dark for 10 minutes and then luciferase intensity was measured using a Victor2 Multilabel plate reader (Perkin Elmer #1420-014) with luciferase relative light unit (RLU) as the read-out. […] The percent cytotoxicity values were calculated as described below and concentration-response curves were generated using GraphPad Prism 6 software with curve fitting by the sigmoidal dose-response function. […]
# [5] = test system: Raji/GF cells; assay: DART-A-mediated redirected killing of Raji/GF cells using ibrutinib-pretreated T cells (luciferase); format: cell-based, human; conditions: T cells pretreated with 2500 nM ibrutinib
# Protocol: Suspension-cultured CD19-positive Raji/GF cells were harvested and washed with 1×DPBS or assay media containing RPMI 1640 without phenol red, 10% FBS, and pen/strep. Cell concentration and viability were measured by Trypan Blue dye exclusion using a Beckman Coulter Vi-Cell counter. The target cells were diluted in assay media to a cell density of 2×10^5 cells/mL. 50 μL of the diluted cell suspension was added to a 96-well, flat-bottom NUNCLON DELTA white plate (Thermo Scientific Cat #136101). For each treatment, duplicate wells were included. Human T cells, following treatment with ibrutinib for various times as described above, were collected and washed 3 times with assay media. After the final wash, the T cells were counted and resuspended in the assay medium at a cell density of 1×10^6 cells/mL and 100 μL were added to each well. […] The plates were incubated at room temperature in the dark for 10 minutes and then luciferase intensity was measured using a Victor2 Multilabel plate reader (Perkin Elmer #1420-014) with luciferase relative light unit (RLU) as the read-out. […] The percent cytotoxicity values were calculated as described below and concentration-response curves were generated using GraphPad Prism 6 software with curve fitting by the sigmoidal dose-response function.
# Specific cell lysis was calculated from RLU data using the following formula: […]
# [6] = test system: human T cells; assay: Ibrutinib alone on ex vivo T-cell cytokine production (ELISA); format: cell-based
# Protocol: as §1
# Production of IFN-γ, TNF-α, and IL-10 was measured by ELISA. […] Because of the minimal IL-6 cytokine production under the ex vivo T-cell proliferation/activation conditions tested, evaluation of ibrutinib's effect on IL-6 induction was not feasible.
# [7] = test system: human PBMCs; assay: T-cell activation and cytokine release with DART-A-mediated B-cell depletion in human PBMCs in the presence of ibrutinib; format: cell-based
# Source text: as §2
# [8] = test system: human T cells; assay: Ibrutinib alone on ex vivo T-cell activation (CD25); format: cell-based
# Protocol: as §1
# The percentages of CD25 in CD4+ and CD8+ T cell subsets were determined by flow cytometry. The effect of ibrutinib treatment alone on upregulation of CD25, a T-cell activation marker, was also evaluated on T cells activated with anti-CD3/CD28 and rhIL2.
# [9] = once daily oral dose of 560 mg, cited from earlier work
# [10] = biological target: T1, CD19 (Homo sapiens, UniProt P15391); conditions: reported; read-out: affinity for CD19; cited from earlier work
# T1 sequence (P15391 20-556): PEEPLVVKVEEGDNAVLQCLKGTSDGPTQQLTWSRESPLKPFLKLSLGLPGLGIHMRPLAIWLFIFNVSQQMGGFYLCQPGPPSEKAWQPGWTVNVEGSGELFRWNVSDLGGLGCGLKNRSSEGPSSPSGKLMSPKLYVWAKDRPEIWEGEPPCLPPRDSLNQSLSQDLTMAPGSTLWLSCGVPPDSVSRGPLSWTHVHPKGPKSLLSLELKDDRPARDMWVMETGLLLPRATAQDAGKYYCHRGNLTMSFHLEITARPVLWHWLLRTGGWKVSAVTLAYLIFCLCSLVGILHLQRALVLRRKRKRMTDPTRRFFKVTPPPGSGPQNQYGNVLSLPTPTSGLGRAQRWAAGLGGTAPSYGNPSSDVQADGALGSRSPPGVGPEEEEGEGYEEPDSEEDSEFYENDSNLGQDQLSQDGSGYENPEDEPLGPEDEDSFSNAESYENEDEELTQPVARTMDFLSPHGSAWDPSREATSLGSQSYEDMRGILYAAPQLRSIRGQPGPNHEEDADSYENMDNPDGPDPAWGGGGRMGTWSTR
# [11] = test system: target cell; conditions: reported; cited from earlier work
# [12] = biological target: CD3 (Homo sapiens, UniProt P07766); conditions: reported; read-out: affinity for CD3; cited from earlier work
# [13] = test system: indolent lymphomas; conditions: retreatment with single agent; cited from earlier work
# Chain of CD3 (P07766 23-207): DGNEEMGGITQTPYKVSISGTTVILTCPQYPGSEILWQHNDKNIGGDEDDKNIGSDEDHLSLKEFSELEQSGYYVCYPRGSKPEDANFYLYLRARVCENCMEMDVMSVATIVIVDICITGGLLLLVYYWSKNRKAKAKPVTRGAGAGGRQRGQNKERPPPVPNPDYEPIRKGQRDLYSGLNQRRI
# Chain of CD3 (P04234 22-171 partner): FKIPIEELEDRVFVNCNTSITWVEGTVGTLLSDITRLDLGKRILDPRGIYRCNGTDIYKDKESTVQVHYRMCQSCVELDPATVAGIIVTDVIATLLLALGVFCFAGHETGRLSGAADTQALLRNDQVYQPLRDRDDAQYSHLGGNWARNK
# Chain of CD3 (P09693 23-182 partner): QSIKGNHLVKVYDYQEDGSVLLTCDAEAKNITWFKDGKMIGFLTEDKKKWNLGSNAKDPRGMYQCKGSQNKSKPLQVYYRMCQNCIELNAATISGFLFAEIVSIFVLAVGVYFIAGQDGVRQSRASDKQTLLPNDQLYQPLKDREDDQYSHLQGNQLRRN
molecule,measurement,setting,value
"C=CC(=O)N1CCC[C@@H](n2nc(-c3ccc(Oc4ccccc4)cc3)c3c(N)ncnc32)C1 [ibrutinib, 1-[(3R)-3-[4-Amino-3-(4-phenoxyphenyl)-1H-pyrazolo[3,4-d]pyrimidin-1-yl]piperidin-1-yl]prop-2-en-1-one, reference compound]",Emax at 0.75 µM,"[1]; ibrutinib 750 nM, read-out: inhibition in the maximal levels (Emax) of T-cell activation",≤ 36%
same,Emax at 2.5 µM,"[1]; ibrutinib 2500 nM, read-out: inhibition in the maximal levels (Emax) of T-cell activation",≤ 63%
same,Emax,"[1]; ibrutinib ≦250 nm, vs untreated group, read-out: inhibition in the maximal levels (Emax) of T cell activation (% CD25)",< 20%
same,ability of T cells to respond to anti-CD3/CD28 and rhIL-2 stimulation (cell numbers),[2],had no impact
same,inhibition at 0.75 µM,"[3]; Homo sapiens, B-cell, ibrutinib 750 nM",8%
same,inhibition at 2.5 µM,"[3]; Homo sapiens, B-cell, ibrutinib 2500 nM",60%
same,inhibition of DART-A-mediated primary B-cell (CD20+) depletion,[3]; ibrutinib ≦250 nM,minimal to no inhibition
same,increase of DART-A EC50 values,"[4]; ibrutinib 750 nM, both time points",8-9 fold
same,inhibitory effect on DART-A-mediated redirected T-cell killing,[4]; ibrutinib ≦250 nM,no or minimal inhibitory effect
same,increase in DART-A EC50 value,[5],~3 fold
same,IFN-γ,"[6]; 2500 nM, all time points",a small reduction in IFN-γ
same,IL-10 and TNF-α production,"[6]; 2500 nM, from 24 hours",decreased IL-10 and TNF-α production
same,"impact on TNF-α, IL-10 and IFN-γ release","[6]; up to 750 nM, up to 72 hours",no or minimal impact
same,inhibition of concomitant T-cell activation and cytokine production,[7]; ibrutinib 250 nM,partial inhibition
same,inhibition of concomitant T-cell activation and cytokine production,[7]; ibrutinib 2500 nM,nearly complete inhibition
same,impact on CD25+ upregulation,[8]; ibrutinib 750 nM,some modest impact
same,reduction in the number of CD4+/CD25+ T cells,"[8]; ibrutinib 2500 nM, 24 hour",~60%
same,reduction in the number of CD8+/CD25+ T cells,"[8]; ibrutinib 2500 nM, 24 hour",~95%
same,inhibition of CD25 upregulation,[8]; ibrutinib ≦250 nM,minimal or no inhibition
same,minimum (Ctrough) serum concentration,[9],25 to 50 nM
same,Cmax,[9]; read-out: maximum (Cmax) serum concentration,~250 nM
Blinatumomab: bi-specific scFv-CD19×CD3 BiTE,Kd,[10],~1 nM
same,EC50 for target cell lysis in vitro,[11],0.01 to 0.1 ng/mL
same,Kd,[12],~100 nM
rituximab: anti-CD20 monoclonal antibody,response rate,[13],40%

# From patent US20170157251A1, “Bi-Specific Monovalent Diabodies That are Capable of Binding CD19 and CD3, and Uses Thereof” (MacroGenics, Inc., priority 2015, published 2017)
